Data published in patent publication US20230167088A1, “1-PYRAZINYLPYRAZOLYL-3-OXYALKYL ACIDS AND THEIR DERIVATIVES, AND THEIR USE FOR CONTROL OF UNDESIRED PLANT GROWTH” (BAYER AKTIENGESELLSCHAFT, priority 2020, published 2023).

Assays:
[1] = tested on: POAAN; assay: Herbicidal pre-emergence action 2b (doubly sown, 1280 g/ha); type: in vivo, Poa annua; conditions: doubly sown pots, dosage 1280 g/ha, visual scoring after about 3 weeks
Summary of the method: (§1)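 Seeds are placed in sandy loam and covered, then the formulated compound is applied to the covering soil in water equivalent to 600 litres per hectare with 0.5% additive. Pots stay in the greenhouse under good growth conditions. Activity is rated visually as a percentage of untreated controls after about three weeks.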

[2] = tested on: STEME; assay: as above; type: in vivo, Stellaria media; conditions: doubly sown pots, dosage 1280 g/ha, visual scoring after about 3 weeks
Summary of the method: as §1

[3] = tested on: POAAN; assay: Herbicidal post-emergence action 1b (twin sowing, 1280 g/ha); type: in vivo, Poa annua; conditions: dosage 1280 g/ha, visual rating about 3 weeks after treatment
Summary of the method: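 Post-emergence foliar spray on one-leaf weeds grown two species per pot in sandy loam; ~3 weeks later, visual rating from 0% (as control) to 100% (plants died).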

[4] = tested on: AMARE; assay: Herbicidal pre-emergence action 2b (doubly sown, 1280 g/ha); type: in vivo, Amaranthus retroflexus; conditions: doubly sown pots, dosage 1280 g/ha, visual scoring after about 3 weeks
Summary of the method: as §1

[5] = tested on: DIGSA; assay: Herbicidal post-emergence action 1b (twin sowing, 1280 g/ha); type: in vivo, Digitaria sanguinalis; conditions: dosage 1280 g/ha, visual rating about 3 weeks after treatment
Method: (§2) [table] b) Seeds of mono- and dicotyledonous weed plants are placed in plastic pots in sandy loam soil (twin sowing with one species each of mono- or dicotyledonous weed plants per pot), covered with soil and cultivated in a greenhouse under controlled growth conditions. 2 to 3 weeks after sowing, the test plants are treated at the one-leaf stage. The compounds of the invention, formulated in the form of wettable powders (WP) or as emulsion concentrates (EC), are applied to the green parts of the plants as aqueous suspension or emulsion with addition of 0.5% additive at a water application rate equivalent to 600 litres per hectare. After the test plants have been kept in the greenhouse under optimum growth conditions for about 3 weeks, the activity of the preparations is rated visually in comparison to untreated controls. For example, 100% activity=the plants have died, 0% activity=like control plants. Tables A16 to A21 below show the effects of selected compounds of the general formula (I) according to Tables 1 and 2 on various harmful plants and at an application rate corresponding to 1280 g/ha, which were obtained by the experimental procedure mentioned above.

[6] = tested on: DIGSA; assay: Herbicidal pre-emergence action 2b (doubly sown, 1280 g/ha); type: in vivo, Digitaria sanguinalis; conditions: doubly sown pots, dosage 1280 g/ha, visual scoring after about 3 weeks
Description: [table] b) Seeds of mono- and dicotyledonous weed plants are placed in plastic pots in sandy loam soil (doubly sown with one species each of mono- or dicotyledonous weed plants per pot) and covered with soil. The compounds of the invention, formulated in the form of wettable powders (WP) or as emulsion concentrates (EC), are then applied onto the surface of the covering soil as aqueous suspension or emulsion with addition of 0.5% additive at a water application rate equivalent to 600 litres per hectare. After the treatment, the pots are placed in a greenhouse and kept under good growth conditions for the trial plants. After about 3 weeks, the effect of the preparations is scored visually in comparison with untreated controls as percentages. For example, 100% activity=the plants have died, 0% activity=like control plants. Tables B16 to B21 below show the effects of selected compounds of the general formula (I) according to Tables 1 and 2 on various harmful plants and at an application rate corresponding to 1280 g/ha, which were obtained by the experimental procedure mentioned above.

[7] = tested on: ABUTH; assay: Herbicidal post-emergence action 1b (twin sowing, 1280 g/ha); type: in vivo, Abutilon theophrasti; conditions: dosage 1280 g/ha, visual rating about 3 weeks after treatment
Method: as §2

[8] = tested on: MATIN; assay: as above; type: in vivo, Matricaria inodora; conditions: dosage 1280 g/ha, visual rating about 3 weeks after treatment
Method: as §2

[9] = tested on: MATIN; assay: Herbicidal pre-emergence action 2b (doubly sown, 1280 g/ha); type: in vivo, Matricaria inodora; conditions: doubly sown pots, dosage 1280 g/ha, visual scoring after about 3 weeks
Summary of the method: as §1

[10] = tested on: ECHCG; assay: as above; type: in vivo, Echinochloa crus-galli; conditions: doubly sown pots, dosage 1280 g/ha, visual scoring after about 3 weeks
Summary of the method: as §1

[11] = tested on: ECHCG; assay: Herbicidal post-emergence action 1b (twin sowing, 1280 g/ha); type: in vivo, Echinochloa crus-galli; conditions: dosage 1280 g/ha, visual rating about 3 weeks after treatment
Method: as §2

[12] = tested on: STEME; assay: as above; type: in vivo, Stellaria media; conditions: dosage 1280 g/ha, visual rating about 3 weeks after treatment
Method: as §2

[13] = tested on: AVEFA; assay: Herbicidal pre-emergence action 2a (greenhouse pots, visual scoring); type: in vivo, Avena fatua; conditions: dosage 320 g/ha, visual scoring after about 3 weeks
Summary of the method: (§3)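 Sow, cover with soil, spray soil surface (WP or EC in water, 0.5% additive, 600 l/ha; 320 and/or 80 g/ha), grow in greenhouse ~3 weeks, score visually in % against untreated controls.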

[14] = tested on: VIOTR; assay: as above; type: in vivo, Viola tricolor; conditions: dosage 320 g/ha, visual scoring after about 3 weeks vs untreated controls
Description: [table] a) Seeds of monocotyledonous and dicotyledonous weed plants and crop plants are placed in plastic or organic plant pots and covered with soil. The compounds of the invention, formulated in the form of wettable powders (WP) or as emulsion concentrates (EC), are then applied onto the surface of the covering soil as aqueous suspension or emulsion with addition of 0.5% additive at a water application rate of 600 1/ha (converted). After the treatment, the pots are placed in a greenhouse and kept under good growth conditions for the trial plants. After about 3 weeks, the effect of the preparations is scored visually in comparison with untreated controls as percentages. For example, 100% activity=the plants have died, 0% activity=like control plants. Tables B1 to B15 below show the effects of selected compounds of the general formula (I) according to Tables 1 and 2 on various harmful plants and an application rate corresponding to 320 g/ha and/or 80 g/ha, which were obtained by the experimental procedure mentioned above.

[15] = tested on: POLCO; assay: as above; type: in vivo, Polygonum convolvulus; conditions: dosage 320 g/ha, visual scoring after about 3 weeks vs untreated controls
Summary of the method: as §3

[16] = tested on: AVEFA; assay: Herbicidal post-emergence action 1a (greenhouse pots, visual rating); type: in vivo, Avena fatua; conditions: Dosage 80 g/ha; rated visually about 3 weeks after treatment; 100% = plants have died, 0% = like control plants
Summary of the method: (§4)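 Weeds and crops sown in sandy loam in greenhouse pots were sprayed post-emergence at the one-leaf stage (2–3 weeks after sowing) with WP or EC formulations plus 0.5% additive at 600 l/ha water, 320 and/or 80 g/ha. About 3 weeks later damage was rated visually against untreated controls (0% = no effect, 100% = dead).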

[17] = tested on: ALOMY; assay: Herbicidal pre-emergence action 2a (greenhouse pots, visual scoring); type: in vivo, Alopecurus myosuroides; conditions: dosage 320 g/ha, visual scoring after about 3 weeks
Summary of the method: as §3

[18] = tested on: ALOMY; assay: Herbicidal post-emergence action 1a (greenhouse pots, visual rating); type: in vivo, Alopecurus myosuroides; conditions: Dosage 80 g/ha; rated visually about 3 weeks after treatment; 100% = plants have died, 0% = like control plants
Summary of the method: as §4

[19] = tested on: VERPE; assay: Herbicidal pre-emergence action 2a (greenhouse pots, visual scoring); type: in vivo, Veronica persica; conditions: dosage 320 g/ha, visual scoring after about 3 weeks vs untreated controls
Summary of the method: as §3

[20] = tested on: AMARE; assay: as above; type: in vivo, Amaranthus retroflexus; conditions: dosage 320 g/ha, visual scoring after about 3 weeks vs untreated controls
Summary of the method: as §3

[21] = tested on: AMARE; assay: Herbicidal post-emergence action 1a (greenhouse pots, visual rating); type: in vivo, Amaranthus retroflexus; conditions: dosage 80 g/ha, visual rating about 3 weeks after treatment
Summary of the method: as §4

[22] = tested on: LOLRI; assay: Herbicidal pre-emergence action 2a (greenhouse pots, visual scoring); type: in vivo, Lolium rigidum; conditions: dosage 320 g/ha, visual scoring after about 3 weeks vs untreated controls
Summary of the method: as §3

| SMILES | Pre-emergence action at 1280 g/ha against POAAN in % [1] [%] | Pre-emergence action at 1280 g/ha against STEME in % [2] [%] | Post-emergence action at 1280 g/ha against POAAN in % [3] [%] | Pre-emergence action at 1280 g/ha against AMARE in % [4] [%] | Post-emergence action at 1280 g/ha against DIGSA in % [5] [%] | Pre-emergence action at 1280 g/ha against DIGSA in % [6] [%] | Post-emergence action at 1280 g/ha against ABUTH in % [7] [%] | Post-emergence action at 1280 g/ha against MATIN in % [8] [%] | Pre-emergence action at 1280 g/ha against MATIN in % [9] [%] | Pre-emergence action at 1280 g/ha against ECHCG in % [10] [%] | Post-emergence action at 1280 g/ha against ECHCG in % [11] [%] | Post-emergence action at 1280 g/ha against STEME in % [12] [%] | also measured |
| --- | --- | --- | --- | --- | --- | --- | --- | --- | --- | --- | --- | --- | --- |
| COC(=O)[C@@H](C)Oc1nn(-c2cnccn2)c(-c2ccnc(F)c2)c1C#N [Example I-35] | 100 | 100 | 100 | 90 | 90 | 90 |  |  |  |  |  |  |  |
| CC(Oc1nn(-c2cnccn2)c(-c2ccc(F)nc2)c1Br)C(=O)O (racemic) [Example I-24] | 100 | 90 | 100 | 90 |  | 100 | 90 |  |  |  |  |  |  |
| COC(=O)COc1nn(-c2cnccn2)c(-c2cnc(F)c(F)c2)c1Br [Example I-42] | 100 | 90 | 100 | 90 | 90 | 100 |  | 100 | 90 |  |  |  |  |
| CCOC(=O)COc1nn(-c2nccnc2F)c(-c2ccc(F)c(F)c2)c1Br [Example I-74] | 100 | 100 | 90 | 100 | 90 | 100 |  | 90 | 100 |  |  |  |  |
| CCOC(=O)COc1nn(-c2cnccn2)c(-c2ccc(F)nc2)c1C(F)(F)F [Example I-66] | 100 | 100 | 90 | 100 |  | 100 | 90 | 90 | 100 | 90 |  |  |  |
| CC(C)=NOC(=O)COc1nn(-c2cnccn2)c(-c2ccc(F)nc2)c1Br [Example I-69] | 100 | 100 | 90 | 100 | 90 | 100 |  | 90 | 100 | 100 | 90 | 90 |  |
| COC(=O)[C@@H](C)Oc1nn(-c2cnccn2)c(-c2cccnc2)c1Br [Example I-38] | 100 | 100 | 100 | 100 | 90 | 100 |  | 90 | 100 | 100 | 100 | 100 |  |
| CCOC(=O)COc1nn(-c2nccnc2Cl)c(-c2ccc(F)nc2)c1Br [Example I-71] | 100 | 100 | 100 | 100 | 90 | 100 |  | 100 | 100 | 100 | 100 |  |  |
| COC(=O)[C@@H](C)Oc1nn(-c2nccnc2Cl)c(-c2ccc(F)nc2)c1Br [Example I-72] | 100 | 100 | 100 | 100 | 100 | 100 |  | 100 | 100 | 100 | 100 | 90 | Pre-emergence action against AVEFA in % [13]: 80%; Pre-emergence action against VIOTR in % [14]: 90%; Pre-emergence action against POLCO in % [15]: 90%; Post-emergence action against AVEFA in % [16]: 90%; Pre-emergence action against ALOMY in % [17]: 90%; Post-emergence action against ALOMY in % [18]: 90%; Pre-emergence action against VERPE in % [19]: 80%; Pre-emergence action against AMARE in % [20]: 100%; Post-emergence action against AMARE in % [21]: 80%; Pre-emergence action against LOLRI in % [22]: 100% |
| O=C(O)COc1nn(-c2nccnc2Cl)c(-c2ccc(F)nc2)c1Br [Example I-73] | 100 | 100 | 100 | 100 |  |  | 90 | 100 | 100 | 100 | 100 |  |  |
